Data taken from PubChem BioAssay (NCI).
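Test compounds were applied to cells in 96-well plates for 48 hours at 5 doses. TGI: total growth inhibition.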

Experiments:
Assay in all cases: NCI tumour cell line growth inhibition, 48 h
[1] = system: DU-145 prostate
[2] = system: NCI-H460 lung
[3] = system: CCRF-CEM leukemia
[4] = system: IGROV1 ovarian
[5] = system: HCT-116 colon
[6] = system: HT29 colon
[7] = system: SW-620 colon
[8] = system: RPMI-8226 leukemia
[9] = system: OVCAR-5 ovarian
[10] = system: A549 NSCLC
[11] = system: BT-549 breast
[12] = system: UACC-62 melanoma
[13] = system: OVCAR-4 ovarian
[14] = system: COLO 205 colon
[15] = system: MALME-3M melanoma
[16] = system: HOP-92 NSCLC
[17] = system: RXF 393 renal
[18] = system: NCI-H23 lung
[19] = system: NCI-H226 lung
[20] = system: UACC-257 melanoma
[21] = system: K-562 leukemia
[22] = system: OVCAR-8 ovarian
[23] = system: MDA-N
[24] = system: EKVX NSCLC
[25] = system: SK-MEL-5 melanoma
[26] = system: SR leukemia
[27] = system: SNB-19 CNS
[28] = system: KM12 colon
[29] = system: T-47D breast
[30] = system: HCC-2998 colon
[31] = system: HCT-15 colon
[32] = system: HL-60(TB) leukemia
[33] = system: NCI/ADR-RES ovarian
[34] = system: SK-MEL-28 melanoma
[35] = system: UO-31 renal
[36] = system: M14 melanoma
[37] = system: SF-295 CNS
[38] = system: NCI-H522 lung
[39] = system: SF-539 CNS
[40] = system: 786-0 renal
[41] = system: HOP-62 NSCLC
[42] = system: SK-OV-3 ovarian
[43] = system: SK-MEL-2 melanoma
[44] = system: ACHN renal
[45] = system: SN12C renal
[46] = system: MCF7 breast
[47] = system: PC-3 prostate
[48] = system: CAKI-1 renal
[49] = system: MDA-MB-435
[50] = system: SNB-75 CNS
[51] = system: MOLT-4 leukemia
[52] = system: OVCAR-3 ovarian
[53] = system: LOX IMVI melanoma
[54] = system: TK-10 renal
[55] = system: U251 CNS
[56] = system: MDA-MB-231 breast
[57] = system: SF-268 CNS
[58] = system: HS 578T breast
[59] = system: A498 renal

Compound: N#CCCN(CCCN(C(=O)Nc1ccccc1)c1ccccc1)C(=O)Nc1ccccc1
- TGI [1]: > 100 µM
- TGI [2]: > 100 µM
- TGI [3]: > 100 µM
- TGI [4]: > 100 µM
- TGI [5]: > 100 µM
- TGI [6]: > 100 µM
- TGI [7]: > 100 µM
- TGI [8]: > 100 µM
- TGI [9]: > 100 µM
- TGI [10]: > 100 µM
- TGI [11]: > 100 µM
- TGI [12]: > 100 µM
- TGI [13]: > 100 µM
- TGI [14]: > 100 µM
- TGI [15]: > 100 µM
- TGI [16]: > 100 µM
- TGI [17]: > 100 µM
- TGI [18]: > 100 µM
- TGI [19]: > 100 µM
- TGI [20]: > 100 µM
- TGI [21]: > 100 µM
- TGI [22]: > 100 µM
- TGI [23]: > 100 µM
- TGI [24]: > 100 µM
- TGI [25]: > 100 µM
- TGI [26]: > 100 µM
- TGI [27]: > 100 µM
- TGI [28]: > 100 µM
- TGI [29]: > 100 µM
- TGI [30]: > 100 µM
- TGI [31]: > 100 µM
- TGI [32]: > 100 µM
- TGI [33]: > 100 µM
- TGI [34]: > 100 µM
- TGI [35]: > 100 µM
- TGI [36]: > 100 µM
- TGI [37]: > 100 µM
- TGI [38]: > 100 µM
- TGI [39]: > 100 µM
- TGI [40]: > 100 µM
- TGI [41]: > 100 µM
- TGI [42]: > 100 µM
- TGI [43]: > 100 µM
- TGI [44]: > 100 µM
- TGI [45]: > 100 µM
- TGI [46]: > 100 µM
- TGI [47]: > 100 µM
- TGI [48]: 28.6 µM
- TGI [49]: > 100 µM
- TGI [50]: > 100 µM
- TGI [51]: > 100 µM
- TGI [52]: > 100 µM
- TGI [53]: > 100 µM
- TGI [54]: > 100 µM
- TGI [55]: > 100 µM
- TGI [56]: > 100 µM

Compound: Cc1c(CCCl)c(=O)n2c([nH]c3ccccc32)c1C#N
- TGI [1]: 5.63 µM
- TGI [57]: 4.41 µM
- TGI [2]: 3.96 µM
- TGI [3]: 2.5 µM
- TGI [4]: 3.4 µM
- TGI [5]: 1.93 µM
- TGI [6]: 3.49 µM
- TGI [7]: 2.27 µM
- TGI [8]: 7.45 µM
- TGI [9]: 4.43 µM
- TGI [10]: 3.53 µM
- TGI [11]: 3.63 µM
- TGI [12]: 2.75 µM
- TGI [13]: 3.16 µM
- TGI [14]: 0.28 µM
- TGI [15]: 2.02 µM
- TGI [16]: 2.82 µM
- TGI [17]: 3.8 µM
- TGI [18]: 3.49 µM
- TGI [19]: 4.84 µM
- TGI [20]: 8.04 µM
- TGI [21]: > 10 µM
- TGI [22]: 3.15 µM
- TGI [23]: 3.33 µM
- TGI [24]: 3.65 µM
- TGI [25]: 2.8 µM
- TGI [26]: > 10 µM
- TGI [28]: 3.14 µM
- TGI [29]: 2.97 µM
- TGI [31]: 2.93 µM
- TGI [32]: > 10 µM
- TGI [33]: 2.7 µM
- TGI [34]: 3.72 µM
- TGI [35]: 3.51 µM
- TGI [36]: 2.99 µM
- TGI [37]: 3.48 µM
- TGI [39]: 2.79 µM
- TGI [40]: 2.84 µM
- TGI [41]: 3.21 µM
- TGI [42]: 3.84 µM
- TGI [43]: 4.46 µM
- TGI [44]: 2.81 µM
- TGI [45]: 2.66 µM
- TGI [46]: > 10 µM
- TGI [47]: 2.82 µM
- TGI [48]: 2.77 µM
- TGI [49]: 4.05 µM
- TGI [50]: 2.78 µM
- TGI [51]: 1.44 µM
- TGI [52]: 3.67 µM
- TGI [53]: 2.02 µM
- TGI [58]: 4.89 µM
- TGI [54]: 5.62 µM
- TGI [55]: 3.45 µM
- TGI [56]: 3.09 µM

Compound: COC(OC)C(O)C1OC=CC1n1cnc2c(N)ncnc21 (configuration not stated)
- TGI [1]: > 100 µM
- TGI [57]: > 100 µM
- TGI [2]: > 100 µM
- TGI [3]: > 100 µM
- TGI [4]: > 100 µM
- TGI [5]: > 100 µM
- TGI [6]: > 100 µM
- TGI [7]: > 100 µM
- TGI [8]: > 100 µM
- TGI [11]: > 100 µM
- TGI [12]: > 100 µM
- TGI [13]: > 100 µM
- TGI [14]: > 100 µM
- TGI [16]: > 100 µM
- TGI [17]: > 100 µM
- TGI [18]: > 100 µM
- TGI [19]: > 100 µM
- TGI [20]: > 100 µM
- TGI [21]: > 100 µM
- TGI [23]: > 100 µM
- TGI [24]: > 100 µM
- TGI [25]: > 100 µM
- TGI [26]: > 100 µM
- TGI [28]: > 100 µM
- TGI [29]: > 100 µM
- TGI [30]: > 100 µM
- TGI [31]: > 100 µM
- TGI [33]: > 100 µM
- TGI [34]: > 100 µM
- TGI [35]: > 100 µM
- TGI [59]: > 100 µM
- TGI [37]: > 100 µM
- TGI [39]: > 100 µM
- TGI [40]: > 100 µM
- TGI [41]: > 100 µM
- TGI [42]: > 100 µM
- TGI [43]: > 100 µM
- TGI [44]: > 100 µM
- TGI [45]: > 100 µM
- TGI [46]: > 100 µM
- TGI [47]: > 100 µM
- TGI [48]: > 100 µM
- TGI [49]: > 100 µM
- TGI [50]: > 100 µM
- TGI [51]: > 100 µM
- TGI [52]: > 100 µM
- TGI [53]: > 100 µM
- TGI [58]: > 100 µM
- TGI [54]: > 100 µM
- TGI [55]: > 100 µM
- TGI [56]: > 100 µM

Compound: Cc1nn(C(=O)c2ccccc2O)c2c1C(c1ccccc1)SC(N)=N2 (configuration not stated)
- TGI [1]: > 10 µM
- TGI [57]: > 10 µM
- TGI [2]: > 10 µM
- TGI [3]: 8.15 µM
- TGI [4]: 6.96 µM
- TGI [5]: > 10 µM
- TGI [6]: > 10 µM
- TGI [7]: > 10 µM
- TGI [8]: 6.05 µM
- TGI [9]: > 10 µM
- TGI [10]: > 10 µM
- TGI [11]: > 10 µM
- TGI [12]: 9.73 µM
- TGI [13]: > 10 µM
- TGI [14]: > 10 µM
- TGI [15]: > 10 µM
- TGI [17]: > 10 µM
- TGI [18]: > 10 µM
- TGI [19]: 7.38 µM
- TGI [20]: > 10 µM
- TGI [21]: 4.76 µM
- TGI [22]: > 10 µM
- TGI [23]: > 10 µM
- TGI [24]: > 10 µM
- TGI [25]: > 10 µM
- TGI [26]: 6.49 µM
- TGI [27]: > 10 µM
- TGI [28]: > 10 µM
- TGI [29]: > 10 µM
- TGI [30]: > 10 µM
- TGI [31]: > 10 µM
- TGI [32]: 3.58 µM
- TGI [33]: > 10 µM
- TGI [34]: > 10 µM
- TGI [36]: > 10 µM
- TGI [37]: > 10 µM
- TGI [38]: > 10 µM
- TGI [39]: 0.621 µM
- TGI [40]: > 10 µM
- TGI [41]: > 10 µM
- TGI [42]: > 10 µM
- TGI [43]: > 10 µM
- TGI [44]: > 10 µM
- TGI [45]: > 10 µM
- TGI [46]: > 10 µM
- TGI [47]: > 10 µM
- TGI [48]: > 10 µM
- TGI [49]: > 10 µM
- TGI [51]: > 10 µM
- TGI [52]: 7.22 µM
- TGI [53]: > 10 µM
- TGI [58]: > 10 µM
- TGI [54]: > 10 µM
- TGI [55]: > 10 µM
- TGI [56]: > 10 µM
